Biological target: MASP-2 CCP2-SP (Homo sapiens (Human), UniProt O00187)
Experiment: MASP-2 co-crystallization, X-ray crystallography and structure analysis (H-bonds, van der Waals contacts);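 on Ligand-pharmacophore element distance, pharmacophore element C2: distance from averaged pharmacophore element to bound ligand; missing value means element absent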;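 on Ligand-pharmacophore element distance, pharmacophore element C3: distance from averaged pharmacophore element to bound ligand; missing value means element absent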;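 on Ligand-pharmacophore element distance, pharmacophore element C4: distance from averaged pharmacophore element to bound ligand; missing value means element absent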;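 on Ligand-pharmacophore element distance, pharmacophore element C5: distance from averaged pharmacophore element to bound ligand; missing value means element absent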
Set-up: van der Waals contact distance, MASP-2 HIS 483 atom CD2 / van der Waals contact distance, MASP-2 HIS 483 atom NE2 / van der Waals contact distance, SER 654 C to compound atom / van der Waals contact distance, SER 654 O to compound atom / van der Waals contact distance, TRP 655 C to compound atom / van der Waals contact distance, MASP-2 GLY 528 atom CA / van der Waals contact distance TRP 655 atom CZ3 / van der Waals contact distance TRP 655 atom N / van der Waals contact distance TRP 655 atom CE3 / van der Waals contact distance GLY 656 atom C / van der Waals contact distance GLY 656 atom CA / van der Waals contact distance GLY 656 atom O / van der Waals contact distance, MASP-2 TYR 607 atom CD1 / van der Waals contact distance, MASP-2 PRO 606 atom O / d(C3,CA1) / d(CA1,N1)2 / d(H4,O1) / d(H4,O2) / d(O1,O2) / d(CA1,O2) / d(CA6,O1) / d(CA6,O2) / d(CA1,C5) / d(O2,H3) / d(N2,C2) / d(CA5,N2) / d(N2,C4) / d(N2,C6) / d(N2,CA3) / d(N2,O3) / d(O4,H2): unit not given beside the values
Conditions: for Ligand-pharmacophore element distance, pharmacophore element C2 / Ligand-pharmacophore element distance, pharmacophore element C3 / Ligand-pharmacophore element distance, pharmacophore element C4 / Ligand-pharmacophore element distance, pharmacophore element C5 / Ligand-pharmacophore element distance, pharmacophore element C6 / Ligand-pharmacophore element distance, pharmacophore element C7 / Ligand-pharmacophore element distance, pharmacophore element CA1 / Ligand-pharmacophore element distance, pharmacophore element CA2 / Ligand-pharmacophore element distance, pharmacophore element CA3 / Ligand-pharmacophore element distance, pharmacophore element CA4 / Ligand-pharmacophore element distance, pharmacophore element CA5 / Ligand-pharmacophore element distance, pharmacophore element CA6: Table A4-1; for d(N2,C2) / d(N2,CA2) / d(O2,H3) / d(O2,N2): Table A5-2 pharmacophore distance, S3/S4 region; for Pharmacophore protein distance to MET_658 (first MET_658 column) / Pharmacophore protein distance to MET_658 (second MET_658 column) / Pharmacophore protein distance to GLY_528 / Pharmacophore protein distance to PHE_529 / Pharmacophore protein distance to PRO_608 / Pharmacophore protein distance to SER_611 / Pharmacophore protein distance to TRP_655: Table A8-6, nearest protein atom in cell to the left; for Pharmacophore protein distance to MET_658 (first MET_658 column): 6th residue column; for Pharmacophore protein distance to MET_658 (second MET_658 column): 9th residue column; for Pharmacophore protein distance to TRP_655: pharmacophore elements C6, CA3, O3, H1
Description: This example illustrates the preparation of recombinant MASP-2 protein, based on UniProt O00187, human mannan-binding lectin serine protease 2. Expression constructs for human MASP-2 CCP2-SP and CCP2-SP-6HIS were generated for recombinant expression in E. coli cells.
Typically, crystallization hits were obtained by screening against […] 96-well crystallization reagent kits (GRAS6, GRAS2, Hampton Research; MORPHEUS, Molecular Dimensions; Wizard 1&2 Cryo, Rigaku Reagents) and crystal growth was inspected by optical microscopy. Crystals were used directly or further optimized for X-ray diffraction. Crystals were captured with cryogenic loops and dipped into liquid nitrogen directly or cryoprotected with a 20% glycerol in crystallization formulation before flash-cooling in liquid nitrogen.
Thereafter crystals are transferred once or twice for soaking within the crystallization solution containing the MASP-2 inhibitor.
Crystals were diffracted with synchrotron X-rays of […] and X-ray diffraction datasets were collected at beamlines SSRL BL9-2, BL14-1, BL12-2 as well as ALS sector 5 using Dectris Pilatus and Eiger detectors. Structures were determined by molecular replacement using portions of the structure 1Q3X as search models and partially refined with Buster 2.10.2 or Refmac 5.8. […] When multiple ligand poses were observed, for instance arising from multiple molecules in the asymmetric unit or refined dual poses within the same molecule, only one pose was selected and analyzed.
LigPlot+ calls these ‘nonbonded contacts’ or ‘hydrophobic contacts’. Despite the name, there are atom pairings that include possible H-bonds. Thus, in some instances, the Table A2 also contains H-bond interactions.

[1] = Table A5-1 pharmacophore: distance between elements, S2/S1 region
[2] = Table A7-1, between pharmacophore elements of the bound compound

Chain of MASP-2 CCP2-SP (O00187 445-686): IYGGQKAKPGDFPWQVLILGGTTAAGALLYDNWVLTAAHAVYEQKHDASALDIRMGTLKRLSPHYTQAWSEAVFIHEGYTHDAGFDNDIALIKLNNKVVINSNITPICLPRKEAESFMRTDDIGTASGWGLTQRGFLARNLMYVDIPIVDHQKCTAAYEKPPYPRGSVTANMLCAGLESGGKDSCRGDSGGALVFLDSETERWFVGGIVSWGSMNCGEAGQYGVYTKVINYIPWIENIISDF
Chain of MASP-2 CCP2-SP (O00187 364-432 partner): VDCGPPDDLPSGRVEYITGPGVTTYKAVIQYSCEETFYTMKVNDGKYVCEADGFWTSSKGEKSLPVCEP

Compound: C[C@H](NC(=O)[C@H](N)CCCc1ccccc1)C(=O)NCc1ccc(C(=N)N)cc1.Cl.Cl [1042_2]
- Ligand-pharmacophore element distance, pharmacophore element C2: 1.33
- Ligand-pharmacophore element distance, pharmacophore element C3: 0
- Ligand-pharmacophore element distance, pharmacophore element C4: 0
- Ligand-pharmacophore element distance, pharmacophore element C5: 0
- Ligand-pharmacophore element distance, pharmacophore element C6: 0
- Ligand-pharmacophore element distance, pharmacophore element C7: 0
- Ligand-pharmacophore element distance, pharmacophore element CA1: 0.5
- Ligand-pharmacophore element distance, pharmacophore element CA2: 0.72
- Ligand-pharmacophore element distance, pharmacophore element CA3: 0
- Ligand-pharmacophore element distance, pharmacophore element CA4: 0
- Ligand-pharmacophore element distance, pharmacophore element CA5: 0
- Ligand-pharmacophore element distance, pharmacophore element CA6: 0
- Ligand-pharmacophore element distance, pharmacophore element H1 (Table A4-2, element H1): 0
- Ligand-pharmacophore element distance, pharmacophore element H2 (Table A4-2, element H2): 0
- Ligand-pharmacophore element distance, pharmacophore element H3 (Table A4-2, element H3): 5.3
- Ligand-pharmacophore element distance, pharmacophore element H4 (Table A4-2, element H4): 3.52
- Ligand-pharmacophore element distance, pharmacophore element N1 (Table A4-2, element N1): 1.61
- Ligand-pharmacophore element distance, pharmacophore element N2 (Table A4-2, element N2): 1.72
- Ligand-pharmacophore element distance, pharmacophore element O1 (Table A4-2, element O1): 3.1
- Ligand-pharmacophore element distance, pharmacophore element O2 (Table A4-2, element O2): 0.75
- Ligand-pharmacophore element distance, pharmacophore element O3 (Table A4-2, element O3): 0
- Ligand-pharmacophore element distance, pharmacophore element O4 (Table A4-2, element O4): 0
- d(CA1,N1) [1]: 3.61
- d(CA1,O1) [1]: 4.47
- d(CA1,O2) [1]: 4.74
- d(H4,O1) [1]: 4.02
- d(H4,O2) [1]: 4.01
- d(O1,O2) [1]: 3.46
- d(N2,C2): 4.38
- d(N2,CA2): 7.44
- d(O2,H3): 5.89
- d(O2,N2): 2.86
- a(CA1, O1, O2) (Table A6-1 pharmacophore angle): 116.12
- a(O1, O2, H4) (Table A6-1 pharmacophore angle): 128.91
- A(N1, CA1, O1) a) (Table A6-1 pharmacophore angle, all compounds with protonatable center N1 except Methyl-amino-pyridine): 164.17
- a(O1, O2, H3) (Table A6-2 pharmacophore angle): 152.56
- a(O1, O2, N2) (Table A6-2 pharmacophore angle): 148.96
- a(O2, N2, C2) (Table A6-2 pharmacophore angle): 139.99
- a(O2, N2, CA2) (Table A6-2 pharmacophore angle): 158.67
- Pharmacophore torsion angle a(H4, O1, O2, H3) [2]: −9.33
- Pharmacophore torsion angle a(H4, O1, O2, N2) [2]: 44.33
- Pharmacophore torsion angle a(N1, CA1, O2, H4) [2]: 69.40
- Pharmacophore torsion angle a(O1, H4, O2, CA1) [2]: 68.80
- Pharmacophore torsion angle a(O1, O2, N2, C2) [2]: 151.54
- Pharmacophore torsion angle a(O1, O2, N2, CA2) (Table A7-2, between pharmacophore elements of the bound compound): 159.77
- Pharmacophore protein distance to MET_658 (first MET_658 column): 1.07
- Pharmacophore protein distance to MET_658 (second MET_658 column): 4.17
- Pharmacophore protein distance to GLY_528: 4.01
- Pharmacophore protein distance to PHE_529: 3.09
- Pharmacophore protein distance to PRO_608: 3.74
- Pharmacophore protein distance to SER_611: 2.54
- Pharmacophore protein distance to TRP_655: 3.27

Compound: C[C@H](NC(=O)[C@H](N)CCCc1ccccc1)C(=O)NCc1ccc(C(=N)N)cc1.Cl.Cl [1042_3]
- Ligand-pharmacophore element distance, pharmacophore element C2: 2.05
- Ligand-pharmacophore element distance, pharmacophore element C3: 0
- Ligand-pharmacophore element distance, pharmacophore element C4: 0
- Ligand-pharmacophore element distance, pharmacophore element C5: 0
- Ligand-pharmacophore element distance, pharmacophore element C6: 0
- Ligand-pharmacophore element distance, pharmacophore element C7: 0
- Ligand-pharmacophore element distance, pharmacophore element CA1: 0.5
- Ligand-pharmacophore element distance, pharmacophore element CA2: 1.65
- Ligand-pharmacophore element distance, pharmacophore element CA3: 0
- Ligand-pharmacophore element distance, pharmacophore element CA4: 0
- Ligand-pharmacophore element distance, pharmacophore element CA5: 0
- Ligand-pharmacophore element distance, pharmacophore element CA6: 0
- d(CA1,N1) [1]: 3.63
- d(CA1,O2) [1]: 4.54
- d(H4,O2) [1]: 4.90
- d(N2,C2): 3.55
- d(N2,CA2): 6.60
- d(O2,H3): 6.75
- d(O2,N2): 4.11
- a(O2, N2, C2) (Table A6-2 pharmacophore angle): 129.44
- a(O2, N2, CA2) (Table A6-2 pharmacophore angle): 145.75
- Pharmacophore protein distance to MET_658 (first MET_658 column): 2.74
- Pharmacophore protein distance to MET_658 (second MET_658 column): 4.20
- Pharmacophore protein distance to GLY_528: 2.99
- Pharmacophore protein distance to PHE_529: 2.42
- Pharmacophore protein distance to PRO_608: 4.06
- Pharmacophore protein distance to SER_611: 2.32
- Pharmacophore protein distance to TRP_655: 3.21

Reference: patent US12195427B2, “MASP-2 inhibitors and methods of use” (priority 2018, dated 2025)
